From patent publication US12564638B2 (SHANGHAITECH UNIVERSITY, priority 2019, dated 2026)
Like-named read-outs stand apart in the source and are kept apart here.

Experiments:
Assay type in all cases: cell-based
[1] = system: PC9BracA1 (EGFR Exon 19 del+T790M, non-small cell lung cancer cells); assay: Cell viability assay (WST/CCK8), PC9Brac1 cells; conditions: read-out: IC50 (half inhibitory concentration)
Outline: (§1)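 Cells seeded at 3 000 per well in RPMI1640 complete medium, dosed next day with compounds at indicated concentrations (DMSO negative control, EGFR TKIs as positive control).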

[2] = system: PC9 cells (EGFR Exon 19 del, non-small cell lung cancer cells); assay: Cell viability assay (WST/CCK8), PC9 cells; conditions: Homo sapiens, PC-9, PC9 (Exon19 Del), 72 hours, read-out: IC50 (half inhibitory concentration)
Outline: (§2)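 Plated 3 000 cells/well in complete RPMI1640 the day before dosing; controls were DMSO (negative) and EGFR TKIs (positive).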

[3] = system: HCC827 cells (EGFR Exon19 del, non-small cell lung cancer cells); assay: Cell viability assay (WST/CCK8), HCC827 cells; conditions: Homo sapiens, HCC827, 72 h, HCC827 (Exon19 Del), 72 hours, read-out: IC50 (half inhibitory concentration)
Outline: as §2

[4] = biological target: T1, EGFR (L858R+T790M) in H1975 cells (Homo sapiens, UniProt P00533, L858R/T790M); assay: Western blot of EGFR protein level (degradation), H1975 cells; conditions: 16 hours; for EGFR degradation (EGFR level, western blot): H1975 cells, 1, 10, 50, 100, 500 nM; for DC50: H1975 cells, western blot
T1 construct: determined in H1975 cells with the EGFR L858R+T790M mutation; endogenous in cells; host or cells: H1975
Procedure: Cancer cells were planted in 12-well-plate at the density of 0.15 million cells per well with 1 mL RPMI1640 completed culture medium. Compounds with different concentrations (DMSO as a solution system, and 1 μL of compounds of different concentrations was added to 1 mL of the cell culture medium) were added to the cells planted one day before. 16 hours after treated, the medium was discarded and the cells were washed with precooled PBS. The cells were placed on ice and treated with RIPA protein lysis buffer containing halt protease and phosphatase inhibitor. After centrifugation at 10000 rpm at 4° C. for 10 minutes, the supernatant was collected. The same amount of proteins were added into 4×SDS loading buffer and heated at 95° C. for 5 minutes for denaturation, and the samples were stored at −20° C. after denaturation, or directly conducted protein electrophoresis. The 4-20% gradient preformed Electrophoretic gels were purchased from Kingsy. The electrophoresis tank and related components were purchased from Bio-rad company, and the electrophoresis condition was isobaric 120V for 2 hours. PVDF membrane was used for the transmembrane, and the whole transmembrane process was carried out on ice with a constant current of 0.4 amperes for an hour. The membrane was blocked with 5% skimmed milk dilution with TBST buffer. Refer to the corresponding antibody instructions for the specific steps of immunoblotting.
The degradation efficacy of the dacomitinib-based compounds on EGFR was determined in HCC827 and H1975 cell lines, which harboring EGFR Exon 19del and EGFR L858R+T790M mutations respectively.
In FIG. 2, concentration-dependent degradation assays were performed on non-small cell lung cancer cell line H1975 (T790M-mutant cell line, the most common mutation type of first-generation EGFR inhibitors). […] The DC50 of compounds SIAIS262032 and SIAIS262037 are both about 50 nM, which provides great potential for drug development to overcome drug resistance caused by EGFR T790M mutation.
The degradation efficacy of the canertinib-based compounds on EGFR was determined in H1975 cells with the EGFR L858R+T790M mutation.
The H1975 cells were treated with the PROTADs with different concentrations (1, 10, 50, 100, 500 nM) for 16 hours, and then the western blot assay was taken to estimate the EGFR levels of the cell lysates in each group. […] The DC50 of SIAIS262125 and SIAIS262182 are both less than 10 nM, much better than canertinib, which provides great potential for drug development to overcome drug resistance caused by EGFR T790M mutation.

[5] = system: BT474 cells (HER2 positive breast cancer cells); assay: Cell viability assay (CCK8), BT474 cells; conditions: for IC50: Homo sapiens, BT-474, Table 10, BT474, 72 hours, read-out: IC50 (half inhibitory concentration)
Outline: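 HER2-overexpressing BT474 cells in RPMI1640 were exposed to compounds for 72 hours over 10 concentrations (3-fold dilution, top 10 μM). Viability was measured with CCK8 reagent against a DMSO control, and IC50 was taken from growth inhibition curves.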

[6] = system: H1975 (EGFR T790M+L858R mutation, non-small cell lung cancer cell line); assay: Cell viability assay (WST/CCK8), H1975 cells; conditions: Homo sapiens, NCI-H1975, H1975 (L858R + T790M), read-out: IC50 (half inhibitory concentration)
Outline: as §1

[7] = biological target: EGFR (Exon 19del) in HCC827 cells (Homo sapiens, UniProt P00533, DEL746-750); assay: Western blot of EGFR protein level (degradation), HCC827 cells; conditions: HCC827 cells, 1, 10, 50, 100, 500 nM, 16 hours
Procedure: Cancer cells were planted in 12-well-plate at the density of 0.15 million cells per well with 1 mL RPMI1640 completed culture medium. Compounds with different concentrations (DMSO as a solution system, and 1 μL of compounds of different concentrations was added to 1 mL of the cell culture medium) were added to the cells planted one day before. 16 hours after treated, the medium was discarded and the cells were washed with precooled PBS. The cells were placed on ice and treated with RIPA protein lysis buffer containing halt protease and phosphatase inhibitor. After centrifugation at 10000 rpm at 4° C. for 10 minutes, the supernatant was collected. The same amount of proteins were added into 4×SDS loading buffer and heated at 95° C. for 5 minutes for denaturation, and the samples were stored at −20° C. after denaturation, or directly conducted protein electrophoresis. The 4-20% gradient preformed Electrophoretic gels were purchased from Kingsy. The electrophoresis tank and related components were purchased from Bio-rad company, and the electrophoresis condition was isobaric 120V for 2 hours. […]
The degradation efficacy of the dacomitinib-based compounds on EGFR was determined in HCC827 and H1975 cell lines, which harboring EGFR Exon 19del and EGFR L858R+T790M mutations respectively. […]

[8] = PC9Brac1 (Ex19del + T790M), 72 hours, WST
[9] = Table 7, canertinib-based compounds, PC9Brca1 (Ex19del + T790M)
[10] = Table 6, canertinib-based compounds, WST
[11] = Table 7, canertinib-based compounds

T1 sequence (P00533 25-1210 T790M/L858R): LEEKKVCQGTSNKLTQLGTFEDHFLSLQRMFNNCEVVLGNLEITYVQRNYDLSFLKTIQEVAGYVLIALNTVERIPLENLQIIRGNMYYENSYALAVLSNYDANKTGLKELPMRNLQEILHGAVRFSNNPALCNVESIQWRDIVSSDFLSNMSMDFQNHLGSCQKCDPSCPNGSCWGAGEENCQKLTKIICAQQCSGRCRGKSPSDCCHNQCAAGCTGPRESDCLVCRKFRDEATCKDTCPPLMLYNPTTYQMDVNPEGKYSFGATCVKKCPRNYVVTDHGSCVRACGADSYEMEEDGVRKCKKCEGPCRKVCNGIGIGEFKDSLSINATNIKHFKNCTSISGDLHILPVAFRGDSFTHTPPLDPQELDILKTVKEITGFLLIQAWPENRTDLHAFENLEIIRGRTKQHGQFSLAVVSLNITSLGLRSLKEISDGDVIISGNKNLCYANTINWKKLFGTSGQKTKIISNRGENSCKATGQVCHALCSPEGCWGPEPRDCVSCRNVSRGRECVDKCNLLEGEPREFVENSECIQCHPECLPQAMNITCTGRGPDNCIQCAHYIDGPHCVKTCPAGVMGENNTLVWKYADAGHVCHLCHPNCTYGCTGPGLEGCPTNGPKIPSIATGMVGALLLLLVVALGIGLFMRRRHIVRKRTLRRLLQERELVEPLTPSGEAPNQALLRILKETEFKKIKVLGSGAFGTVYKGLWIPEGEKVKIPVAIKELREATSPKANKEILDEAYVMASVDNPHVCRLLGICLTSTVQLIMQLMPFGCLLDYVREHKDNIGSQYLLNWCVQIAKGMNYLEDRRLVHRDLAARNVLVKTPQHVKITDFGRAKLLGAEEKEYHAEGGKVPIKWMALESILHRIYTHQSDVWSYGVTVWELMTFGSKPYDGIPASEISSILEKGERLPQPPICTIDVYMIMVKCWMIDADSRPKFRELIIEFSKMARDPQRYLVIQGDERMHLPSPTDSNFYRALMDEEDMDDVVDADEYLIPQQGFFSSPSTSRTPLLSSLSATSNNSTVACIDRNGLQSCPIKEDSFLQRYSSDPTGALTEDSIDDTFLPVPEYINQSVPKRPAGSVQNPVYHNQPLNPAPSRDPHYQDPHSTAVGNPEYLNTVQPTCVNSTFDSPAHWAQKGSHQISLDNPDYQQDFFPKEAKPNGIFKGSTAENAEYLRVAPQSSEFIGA
Chain of EGFR (Exon 19del) in HCC827 cells (P00533 with tags, fused parts or gaps DEL746-750): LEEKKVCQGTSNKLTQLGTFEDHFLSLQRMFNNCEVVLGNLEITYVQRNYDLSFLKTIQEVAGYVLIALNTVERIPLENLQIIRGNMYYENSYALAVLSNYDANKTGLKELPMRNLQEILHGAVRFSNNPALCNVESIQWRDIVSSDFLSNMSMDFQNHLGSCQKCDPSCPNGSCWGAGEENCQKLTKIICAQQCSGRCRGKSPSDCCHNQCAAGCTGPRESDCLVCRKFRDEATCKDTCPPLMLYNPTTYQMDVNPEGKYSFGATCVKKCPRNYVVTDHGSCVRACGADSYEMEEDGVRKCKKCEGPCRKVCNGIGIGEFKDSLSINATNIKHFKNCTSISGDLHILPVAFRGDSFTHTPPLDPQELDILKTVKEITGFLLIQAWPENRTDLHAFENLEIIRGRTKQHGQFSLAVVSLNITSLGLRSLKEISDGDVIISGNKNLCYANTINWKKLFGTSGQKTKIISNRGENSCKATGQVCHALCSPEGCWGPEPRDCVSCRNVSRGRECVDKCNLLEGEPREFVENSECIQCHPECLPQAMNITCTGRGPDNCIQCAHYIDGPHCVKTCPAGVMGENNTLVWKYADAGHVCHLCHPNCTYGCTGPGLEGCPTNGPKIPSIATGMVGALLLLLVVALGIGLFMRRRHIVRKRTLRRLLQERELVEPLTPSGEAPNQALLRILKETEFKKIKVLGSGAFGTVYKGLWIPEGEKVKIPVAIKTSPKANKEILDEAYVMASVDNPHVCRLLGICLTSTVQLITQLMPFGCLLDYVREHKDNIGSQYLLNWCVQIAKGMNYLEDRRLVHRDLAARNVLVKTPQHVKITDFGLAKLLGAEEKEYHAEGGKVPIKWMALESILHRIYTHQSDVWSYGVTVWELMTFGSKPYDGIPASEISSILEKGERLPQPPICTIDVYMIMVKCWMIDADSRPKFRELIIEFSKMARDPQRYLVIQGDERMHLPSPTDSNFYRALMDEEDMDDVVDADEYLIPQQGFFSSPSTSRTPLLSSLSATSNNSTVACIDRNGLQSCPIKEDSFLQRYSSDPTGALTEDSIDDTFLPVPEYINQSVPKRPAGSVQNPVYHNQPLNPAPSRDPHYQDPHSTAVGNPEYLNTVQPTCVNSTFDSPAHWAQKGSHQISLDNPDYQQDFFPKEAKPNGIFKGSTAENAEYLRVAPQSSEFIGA

| Structure (SMILES) | IC50 [1, 8] | IC50 ([2]; WST (CCK8)) | IC50 ([3]; WST (CCK8)) | EGFR degradation (EGFR level, western blot) [4] | DC50 [4] | IC50 [5] | IC50 ([6]; 72 hours, WST) | IC50 [1, 9] | IC50 [2, 10] | IC50 [3, 10] | IC50 [6, 11] | EGFR degradation (EGFR level, western blot) [7] | antineoplastic activity (in words) ([5]; BT474 cells, 72 hours) |
| --- | --- | --- | --- | --- | --- | --- | --- | --- | --- | --- | --- | --- | --- |
| C=CC(=O)Nc1cc2c(Nc3ccc(F)c(Cl)c3)ncnc2cc1OCCCN1CCC(N2CCN(CCCCCCSc3cccc4c3CN(C3CCC(=O)NC3=O)C4=O)CC2)CC1 (stereo not shown) [SIAIS262180, N-(4-((3-chloro-4-fluorophenyl)amino)-7-(3-(4-(4-(6-((2-(2,6-dioxopiperidin-3-yl)-1-oxoisoindolin-4-yl)thio)hexyl)piperazin-1-yl)piperidin-1-yl)propoxy)quinazolin-6-yl)acrylamide] | – | – | – | obvious EGFR degradation efficacy | – | 4.4 nM | – | 570 nM | 10.2 nM | 4.2 nM | 24 nM | – | – |
| C=CC(=O)Nc1cc2c(Nc3ccc(F)c(Cl)c3)ncnc2cc1OCCCN1CCN(CCCCCCNc2cccc3c2C(=O)N(C2CCC(=O)NC2=O)C3=O)CC1 (stereo not shown) [SIAIS262182, N-(4-((3-chloro-4-fluorophenyl)amino)-7-(3-(4-(6-((2-(2,6-dioxopiperidin-3-yl)-1,3-dioxoisoindolin-4-yl)amino)hexyl)piperazin-1-yl)propoxy)quinazolin-6-yl)acrylamide] | – | – | – | obvious EGFR degradation efficacy | – | 5 nM | < 25 nM | 192 nM | 11.1 nM | 1.4 nM | 12 nM | – | – |
| COc1cc2ncnc(Nc3ccc(F)c(Cl)c3)c2cc1NC(=O)/C=C/CN1CCCCC1 [dacomitinib, reference compound] | 674 nM | 0.4 nM | 0.5 nM | – | – | – | 834 nM | – | – | – | – | couldn't degrade EGFR | – |

Continued, in another order:

| IC50 [1, 8] | IC50 ([2]; WST (CCK8)) | IC50 ([3]; WST (CCK8)) | EGFR degradation (EGFR level, western blot) [4] | DC50 [4] | IC50 [5] | IC50 ([6]; 72 hours, WST) | IC50 [1, 9] | IC50 [2, 10] | IC50 [3, 10] | IC50 [6, 11] | EGFR degradation (EGFR level, western blot) [7] | Structure (SMILES) | antineoplastic activity (in words) ([5]; BT474 cells, 72 hours) |
| --- | --- | --- | --- | --- | --- | --- | --- | --- | --- | --- | --- | --- | --- |
| 438 nM | 43.5 nM | 3.3 nM | obvious EGFR degradation efficacy | ~50 nM | – | – | – | – | – | – | – | COc1cc2ncnc(Nc3ccc(F)c(Cl)c3)c2cc1NC(=O)/C=C/CN1CCC(N2CCN(C(=O)CCCCCSc3cccc4c3C(=O)N(C3CCC(=O)NC3=O)C4=O)CC2)CC1 (stereo not shown) [SIAIS262032, (E)-N-(4-((3-chloro-4-fluorophenyl)amino)-7-methoxyquinazolin-6-yl)-4-(4-(4-(6-((2-(2,6-dioxopiperidin-3-yl)-1,3-dioxoisoindolin-4-yl)thio)hexanoyl)piperazin-1-yl)piperidin-1-yl)but-2-enamide] | – |
| 491 nM | 6.1 nM | 2.2 nM | obvious EGFR degradation efficacy | – | 2.1 nM | 514 nM | – | – | – | – | – | COc1cc2ncnc(Nc3ccc(F)c(Cl)c3)c2cc1NC(=O)/C=C/CN1CCC(N2CCN(C(=O)CCCCCSc3cccc4c3CN(C3CCC(=O)NC3=O)C4=O)CC2)CC1 (stereo not shown) [SIAIS262035, (E)-N-(4-((3-chloro-4-fluorophenyl)amino)-7-methoxyquinazolin-6-yl)-4-(4-(4-(6-((2-(2,6-dioxopiperidin-3-yl)-1-oxoisoindolin-4-yl)thio)hexanoyl)piperazin-1-yl)piperidin-1-yl)but-2-enamide] | – |
| – | 2.1 nM | 1.6 nM | obvious EGFR degradation efficacy | ~50 nM | 0.9 nM | – | – | – | – | – | – | COc1cc2ncnc(Nc3ccc(F)c(Cl)c3)c2cc1NC(=O)/C=C/CN1CCC(N2CCN(C(=O)CCCCCCNc3cccc4c3C(=O)N(C3CCC(=O)NC3=O)C4=O)CC2)CC1 (stereo not shown) [SIAIS262037, (E)-N-(4-((3-chloro-4-fluorophenyl)amino)-7-methoxyquinazolin-6-yl)-4-(4-(4-(7-((2-(2,6-dioxopiperidin-3-yl)-1,3-dioxoisoindolin-4-yl)amino)heptanoyl)piperazin-1-yl)piperidin-1-yl)but-2-enamide] | – |
| – | – | 0.3 nM | obvious EGFR degradation efficacy | – | 9.6 nM | < 25 nM | 79 nM | 1.3 nM | 0.3 nM | 15 nM | – | C=CC(=O)Nc1cc2c(Nc3ccc(F)c(Cl)c3)ncnc2cc1OCCCN1CCN(C(=O)CCCCCNc2cccc3c2C(=O)N(C2CCC(=O)NC2=O)C3=O)CC1 (stereo not shown) [SIAIS262125, N-(4-((3-chloro-4-fluorophenyl)amino)-7-(3-(4-(6-((2-(2,6-dioxopiperidin-3-yl)-1,3-dioxoisoindolin-4-yl)amino)hexanoyl)piperazin-1-yl)propoxy)quinazolin-6-yl)acrylamide] | better antineoplastic activity than the relative EGFR TKIs |
